Experimental data: ChEMBL document CHEMBL1201861, “Genomics of Drug Sensitity in Cancer screening data, Wellcome Trust Sanger Institute”

Key:
Ca9-22 = assay: cells; type: functional, cell-based, Homo sapiens; conditions: Homo sapiens, Ca9-22;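 further: growth inhibition of Ca9-22 cells, read out with a cell viability assay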
Description: SANGER: Inhibition of human Ca9-22 cell growth in a cell viability assay.

G-402 = assay: cells; type: functional, cell-based, Homo sapiens; conditions: Homo sapiens, G-402
Description: SANGER: Inhibition of human G-402 cell growth in a cell viability assay.

GP5d = assay: cells; type: functional, cell-based, Homo sapiens; conditions: Homo sapiens, GP5d;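 further: growth inhibition of human GP5d cells, read out with a cell viability assay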
Description: SANGER: Inhibition of human GP5d cell growth in a cell viability assay.

HCC1937 = assay: cells; type: functional, cell-based, Homo sapiens; conditions: Homo sapiens, HCC1937;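 further: growth inhibition measured with a cell viability read-out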
Description: SANGER: Inhibition of human HCC1937 cell growth in a cell viability assay.

HT-1080 = assay: cells; type: functional, cell-based, Homo sapiens; conditions: Homo sapiens, HT-1080
Description: SANGER: Inhibition of human HT-1080 cell growth in a cell viability assay.

HT1197 = assay: cells; type: functional, cell-based, Homo sapiens, HT-1197; conditions: Homo sapiens, HT1197
Description: SANGER: Inhibition of human HT-1197 cell growth in a cell viability assay.

HT-1376 = assay: cells; type: functional, cell-based, Homo sapiens; conditions: Homo sapiens, HT-1376
Description: SANGER: Inhibition of human HT-1376 cell growth in a cell viability assay.

Huh-7 = assay: cells; type: functional, cell-based, Homo sapiens; conditions: Homo sapiens, Huh-7;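 further: HuH-7 cell growth inhibition, read out with a cell viability assay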
Description: SANGER: Inhibition of human HuH-7 cell growth in a cell viability assay.

HuO9 = assay: cells; type: functional, cell-based, Homo sapiens; conditions: Homo sapiens, HuO9;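 further: growth inhibition of HuO9 cells, read out with a cell viability assay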
Description: SANGER: Inhibition of human HuO9 cell growth in a cell viability assay.

IGR-1 = assay: cells; type: functional, cell-based, Homo sapiens; conditions: Homo sapiens, IGR-1;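 further: growth inhibition of human IGR-1 cells, read out with a cell viability assay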
Description: SANGER: Inhibition of human IGR-1 cell growth in a cell viability assay.

KP-N-YN = assay: cells; type: functional, cell-based, Homo sapiens; conditions: Homo sapiens, KP-N-YN;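 further: growth inhibition of KP-N-YN cells, read out with a cell viability assay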
Description: SANGER: Inhibition of human KP-N-YN cell growth in a cell viability assay.

KYSE-70 cell line = assay: cells; type: functional, cell-based, Homo sapiens; conditions: Homo sapiens, KYSE-70;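 further: cell viability assay read-out, with IC50 expressing suppression of KYSE-70 cell growth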
Description: SANGER: Inhibition of human KYSE-70 cell growth in a cell viability assay.

LN-405 = assay: cells; type: functional, cell-based, Homo sapiens; conditions: Homo sapiens, LN-405
Description: SANGER: Inhibition of human LN-405 cell growth in a cell viability assay.

LU-99A = assay: cells; type: functional, cell-based, Homo sapiens; conditions: Homo sapiens, LU-99A;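 further: growth inhibition of LU-99A cells, read out with a cell viability assay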
Description: SANGER: Inhibition of human LU-99A cell growth in a cell viability assay.

MHH-ES-1 = assay: cells; type: functional, cell-based, Homo sapiens; conditions: Homo sapiens, MHH-ES-1
Description: SANGER: Inhibition of human MHH-ES-1 cell growth in a cell viability assay.

NCI-H1437 = assay: cells; type: functional, cell-based, Homo sapiens; conditions: Homo sapiens, NCI-H1437;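 further: growth inhibition of human NCI-H1437 cells, read out by a cell viability assay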
Description: SANGER: Inhibition of human NCI-H1437 cell growth in a cell viability assay.

NCI-H1573 = assay: cells; type: functional, cell-based, Homo sapiens; conditions: Homo sapiens, NCI-H1573;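 further: growth inhibition of NCI-H1573 cells, read out with a cell viability assay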
Description: SANGER: Inhibition of human NCI-H1573 cell growth in a cell viability assay.

NCI-H2228 = assay: cells; type: functional, cell-based, Homo sapiens; conditions: Homo sapiens, NCI-H2228;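 further: growth inhibition of human NCI-H2228 cells, read out by a cell viability assay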
Description: SANGER: Inhibition of human NCI-H2228 cell growth in a cell viability assay.

OVCAR-3 = assay: cells; type: functional, cell-based, Homo sapiens; conditions: Homo sapiens, OVCAR-3;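 further: growth inhibition of human OVCAR-3 cells, determined by a cell viability assay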
Description: SANGER: Inhibition of human OVCAR-3 cell growth in a cell viability assay.

SK-MEL-28 = assay: cells; type: functional, cell-based, Homo sapiens; conditions: Homo sapiens, SK-MEL-28;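 further: growth inhibition of human SK-MEL-28 cells, read out with a cell viability assay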
Description: SANGER: Inhibition of human SK-MEL-28 cell growth in a cell viability assay.

SK-MEL3 = assay: cells; type: functional, cell-based, Homo sapiens, SK-MEL-3; conditions: Homo sapiens, SK-MEL3;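 further: growth inhibition of human SK-MEL-3 cells, read out with a cell viability assay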
Description: SANGER: Inhibition of human SK-MEL-3 cell growth in a cell viability assay.

SK-OV-3 = assay: cells; type: functional, cell-based, Homo sapiens; conditions: Homo sapiens, SK-OV-3;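 further: growth inhibition of SK-OV-3 human cells, read out with a cell viability assay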
Description: SANGER: Inhibition of human SK-OV-3 cell growth in a cell viability assay.

SN12C = assay: cells; type: functional, cell-based, Homo sapiens; conditions: Homo sapiens, SN12C;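 further: growth inhibition of human SN12C cells, measured by a cell viability assay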
Description: SANGER: Inhibition of human SN12C cell growth in a cell viability assay.

SW1990 = assay: cells; type: functional, cell-based, Homo sapiens; conditions: Homo sapiens, SW1990
Description: SANGER: Inhibition of human SW1990 cell growth in a cell viability assay.

SW756 = assay: cells; type: functional, cell-based, Homo sapiens; conditions: Homo sapiens, SW756;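 further: growth inhibition of human SW756 cells, read out with a cell viability assay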
Description: SANGER: Inhibition of human SW756 cell growth in a cell viability assay.

T98G = assay: cells; type: functional, cell-based, Homo sapiens; conditions: Homo sapiens, T98G;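 further: growth inhibition of T98G cells, read out by a cell viability assay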
Description: SANGER: Inhibition of human T98G cell growth in a cell viability assay.

5637 = assay: cells; type: functional, cell-based, Homo sapiens; conditions: Homo sapiens
Description: SANGER: Inhibition of human 5637 cell growth in a cell viability assay.

639-V = assay: cells; type: functional, cell-based, Homo sapiens; conditions: Homo sapiens, 639-V;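 further: growth inhibition of 639-V cells, read out with a cell viability assay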
Description: SANGER: Inhibition of human 639-V cell growth in a cell viability assay.

A 172 = assay: cells; type: functional, cell-based, Homo sapiens; conditions: Homo sapiens, A 172;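 further: growth inhibition of A172 cells, measured with a cell viability readout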
Description: SANGER: Inhibition of human A172 cell growth in a cell viability assay.

BXPC-3 = assay: cells; type: functional, cell-based, Homo sapiens; conditions: Homo sapiens, BXPC-3;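 further: growth inhibition of human BxPC-3 cells, read out by a cell viability assay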
Description: SANGER: Inhibition of human BxPC-3 cell growth in a cell viability assay.

C-33-A = assay: cells; type: functional, cell-based, Homo sapiens; conditions: Homo sapiens, C-33-A;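 further: cell viability assay measuring growth inhibition of C-33-A cells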
Description: SANGER: Inhibition of human C-33-A cell growth in a cell viability assay.

CAKI-1 = assay: cells; type: functional, cell-based, Homo sapiens; conditions: Homo sapiens, CAKI-1;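 further: growth inhibition of CAKI-1 cells, measured by a cell viability assay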
Description: SANGER: Inhibition of human CAKI-1 cell growth in a cell viability assay.

UMUC3 = assay: cells; type: functional, cell-based, Homo sapiens; conditions: Homo sapiens, UMUC3;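 further: growth inhibition of human UM-UC-3 cells, read out with a cell viability assay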
Description: SANGER: Inhibition of human UM-UC-3 cell growth in a cell viability assay.

YH-13 = assay: cells; type: functional, cell-based, Homo sapiens; conditions: Homo sapiens, YH-13;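 further: cell viability readout of growth suppression in the human YH-13 cell line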
Description: SANGER: Inhibition of human YH-13 cell growth in a cell viability assay.

DMS-153 = assay: cells; type: functional, cell-based, Homo sapiens; conditions: Homo sapiens, DMS-153
Description: SANGER: Inhibition of human DMS-153 cell growth in a cell viability assay.

EVSA-T = assay: cells; type: functional, cell-based, Homo sapiens; conditions: Homo sapiens, EVSA-T;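 further: growth inhibition of EVSA-T cells, read out with a cell viability assay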
Description: SANGER: Inhibition of human EVSA-T cell growth in a cell viability assay.

GDM-1 = assay: cells; type: functional, cell-based, Homo sapiens; conditions: Homo sapiens, GDM-1;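 further: cell viability readout used to measure growth inhibition of human GDM-1 cells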
Description: SANGER: Inhibition of human GDM-1 cell growth in a cell viability assay.

LB647-SCLC = assay: cells; type: functional, cell-based, Homo sapiens; conditions: Homo sapiens, LB647-SCLC;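 further: cell growth inhibition, read out by a viability assay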
Description: SANGER: Inhibition of human LB647-SCLC cell growth in a cell viability assay.

MDA-MB-134-VI = assay: cells; type: functional, cell-based, Homo sapiens; conditions: Homo sapiens, MDA-MB-134-VI
Description: SANGER: Inhibition of human MDA-MB-134-VI cell growth in a cell viability assay.

MHH-CALL-2 = assay: cells; type: functional, cell-based, Homo sapiens; conditions: Homo sapiens, MHH-CALL-2;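 further: growth inhibition of the cell line, read out in a cell viability assay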
Description: SANGER: Inhibition of human MHH-CALL-2 cell growth in a cell viability assay.

NCCIT = assay: SANGER: Inhibition of human NCCIT cell growth in a cell viability assay.; type: functional, cell-based; conditions: Homo sapiens, NCCIT
NCI-H1417 = assay: cells; type: functional, cell-based, Homo sapiens; conditions: Homo sapiens, NCI-H1417;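 further: human NCI-H1417 cells, growth inhibition determined with a cell viability readout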
Description: SANGER: Inhibition of human NCI-H1417 cell growth in a cell viability assay.

NCI-H187 = assay: cells; type: functional, cell-based, Homo sapiens; conditions: Homo sapiens, NCI-H187;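 further: growth inhibition of NCI-H187 cells, read out as cell viability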
Description: SANGER: Inhibition of human NCI-H187 cell growth in a cell viability assay.

NCI-H2141 = assay: cells; type: functional, cell-based, Homo sapiens; conditions: Homo sapiens, NCI-H2141;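 further: growth inhibition of human NCI-H2141 cells, read out with a cell viability assay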
Description: SANGER: Inhibition of human NCI-H2141 cell growth in a cell viability assay.

BL-41 = assay: cells; type: functional, cell-based, Homo sapiens; conditions: Homo sapiens, BL-41;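 further: growth inhibition of human BL-41 cells, read out with a cell viability assay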
Description: SANGER: Inhibition of human BL-41 cell growth in a cell viability assay.

YT = assay: cells; type: functional, cell-based, Homo sapiens; conditions: Homo sapiens, YT
Description: SANGER: Inhibition of human YT cell growth in a cell viability assay.

CHP-126 = assay: cells; type: functional, cell-based, Homo sapiens; conditions: Homo sapiens, CHP-126
Description: SANGER: Inhibition of human CHP-126 cell growth in a cell viability assay.

MOLT-13 = assay: cells; type: functional, cell-based, Homo sapiens; conditions: Homo sapiens, MOLT-13;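 further: IC50 for suppression of MOLT-13 cell growth, read out with a cell viability assay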
Description: SANGER: Inhibition of human MOLT-13 cell growth in a cell viability assay.

SMILES: CS(=O)(=O)c1ccc(C(=O)Nc2ccc(Cl)c(-c3ccccn3)c2)c(Cl)c1 [VISMODEGIB]
- IC50 (Ca9-22): > 10 µM
- IC50 (G-402): > 10 µM
- IC50 (GP5d): > 10 µM
- IC50 (HCC1937): > 10 µM
- IC50 (HT-1080): > 10 µM
- IC50 (HT1197): > 10 µM
- IC50 (HT-1376): > 10 µM
- IC50 (Huh-7): > 10 µM
- IC50 (HuO9): > 10 µM
- IC50 (IGR-1): > 10 µM
- IC50 (KP-N-YN): > 10 µM
- IC50 (KYSE-70 cell line): > 10 µM
- IC50 (LN-405): > 10 µM
- IC50 (LU-99A): > 10 µM
- IC50 (MHH-ES-1): > 10 µM
- IC50 (NCI-H1437): > 10 µM
- IC50 (NCI-H1573): > 10 µM
- IC50 (NCI-H2228): > 10 µM
- IC50 (OVCAR-3): > 10 µM
- IC50 (SK-MEL-28): > 10 µM
- IC50 (SK-MEL3): > 10 µM
- IC50 (SK-OV-3): > 10 µM
- IC50 (SN12C): > 10 µM
- IC50 (SW1990): > 10 µM
- IC50 (SW756): > 10 µM
- IC50 (T98G): > 10 µM
- IC50 5637: > 10 µM
- IC50 (639-V): > 10 µM
- IC50 (A 172): > 10 µM
- IC50 (BXPC-3): > 10 µM
- IC50 (C-33-A): > 10 µM
- IC50 (CAKI-1): > 10 µM
- IC50 (UMUC3): > 10 µM
- IC50 (YH-13): > 10 µM

SMILES: N#Cc1c(O)c2c(-c3ccc(-c4ccccc4O)cc3)csc2[nH]c1=O
- IC50 (Ca9-22): > 1.02 µM
- IC50 (DMS-153): 0.373 µM
- IC50 (EVSA-T): 0.381 µM
- IC50 (G-402): > 1.02 µM
- IC50 (GDM-1): 0.0255 µM
- IC50 (GP5d): > 1.02 µM
- IC50 (HCC1937): > 1.02 µM
- IC50 (HT-1080): > 1.02 µM
- IC50 (HT1197): > 1.02 µM
- IC50 (HT-1376): > 1.02 µM
- IC50 (Huh-7): > 1.02 µM
- IC50 (HuO9): > 1.02 µM
- IC50 (IGR-1): > 1.02 µM
- IC50 (KYSE-70 cell line): > 1.02 µM
- IC50 (LB647-SCLC): 0.622 µM
- IC50 (LN-405): > 1.02 µM
- IC50 (LU-99A): > 1.02 µM
- IC50 (MDA-MB-134-VI): > 1.02 µM
- IC50 (MHH-CALL-2): > 1.02 µM
- IC50 (MHH-ES-1): > 1.02 µM
- IC50 (NCCIT): > 1.02 µM
- IC50 (NCI-H1417): 0.439 µM
- IC50 (NCI-H1437): > 1.02 µM
- IC50 (NCI-H187): 0.545 µM
- IC50 (NCI-H2141): 0.633 µM
- IC50 (NCI-H2228): > 1.02 µM
- IC50 (OVCAR-3): > 1.02 µM
- IC50 (SK-MEL-28): > 1.02 µM
- IC50 (SK-MEL3): > 1.02 µM
- IC50 (SK-OV-3): > 1.02 µM
- IC50 (SN12C): > 1.02 µM
- IC50 (SW1990): > 1.02 µM
- IC50 (SW756): > 1.02 µM
- IC50 (T98G): > 1.02 µM
- IC50 5637: > 1.02 µM
- IC50 (639-V): > 1.02 µM
- IC50 (A 172): > 1.02 µM
- IC50 (BL-41): 0.189 µM
- IC50 (BXPC-3): > 1.02 µM
- IC50 (C-33-A): > 1.02 µM
- IC50 (CAKI-1): > 1.02 µM
- IC50 (UMUC3): > 1.02 µM
- IC50 (YT): 0.0467 µM
- IC50 (CHP-126): 0.269 µM

SMILES: CC(C)c1ccccc1Cc1cc(C(=O)Nc2ccc(S(=O)(=O)c3ccccc3C(C)(C)C)cc2)c(O)c(O)c1O
- IC50 (Ca9-22): 0.00382 µM
- IC50 (EVSA-T): 0.14 µM
- IC50 (G-402): 0.193 µM
- IC50 (GP5d): 0.782 µM
- IC50 (HCC1937): 1.64 µM
- IC50 (HT-1080): 0.256 µM
- IC50 (HT1197): 5.95 µM
- IC50 (HT-1376): 1.9 µM
- IC50 (Huh-7): 0.0328 µM
- IC50 (HuO9): 0.727 µM
- IC50 (IGR-1): 0.301 µM
- IC50 (KP-N-YN): 15.9 µM
- IC50 (KYSE-70 cell line): 5.31 µM
- IC50 (LN-405): 1.58 µM
- IC50 (LU-99A): 0.274 µM
- IC50 (MHH-ES-1): 0.5 µM
- IC50 (NCI-H1437): 0.538 µM
- IC50 (NCI-H1573): 7.08 µM
- IC50 (NCI-H2228): 0.662 µM
- IC50 (OVCAR-3): 0.379 µM
- IC50 (SK-MEL-28): 1.39 µM
- IC50 (SK-MEL3): 0.693 µM
- IC50 (SK-OV-3): 0.527 µM
- IC50 (SN12C): 1.11 µM
- IC50 (SW1990): 1.67 µM
- IC50 (SW756): 0.112 µM
- IC50 (T98G): 0.606 µM
- IC50 5637: 0.552 µM
- IC50 (639-V): 0.521 µM
- IC50 (A 172): 0.794 µM
- IC50 (BXPC-3): 2.48 µM
- IC50 (C-33-A): 0.109 µM
- IC50 (CAKI-1): 0.216 µM
- IC50 (UMUC3): 0.163 µM
- IC50 (YH-13): 0.0706 µM

SMILES: CN(C)C(=N)NC(=N)N [METFORMIN]
- IC50 (Ca9-22): 7950 µM
- IC50 (G-402): 11300 µM
- IC50 (GP5d): > 20000 µM
- IC50 (HCC1937): > 20000 µM
- IC50 (HT-1080): > 20000 µM
- IC50 (HT1197): > 20000 µM
- IC50 (HT-1376): 10400 µM
- IC50 (Huh-7): 15500 µM
- IC50 (MHH-ES-1): > 20000 µM
- IC50 (MOLT-13): 556 µM
- IC50 (NCI-H1437): > 20000 µM
- IC50 (NCI-H1573): 16900 µM
- IC50 (NCI-H2228): > 20000 µM
- IC50 (OVCAR-3): 17600 µM
- IC50 (SW756): > 20000 µM
- IC50 (T98G): > 20000 µM
- IC50 5637: 5300 µM
- IC50 (639-V): > 20000 µM
- IC50 (A 172): 17500 µM
- IC50 (BXPC-3): > 20000 µM
- IC50 (C-33-A): 9400 µM
- IC50 (CAKI-1): > 20000 µM
- IC50 (UMUC3): 12800 µM
- IC50 (YH-13): > 20000 µM
